We go through 16 compounds from patent US20250270209A1 (INTERLINE THERAPEUTICS, INC., priority 2022, published 2025).

The target of assay [1] is LRRK2 wild type enzyme (Homo sapiens, UniProt Q5S007). The experiment in a line: Biochemical Assay: LRRK2 TR-FRET (LanthaScreen) kinase assay with LRRKtide substrate. The settings on record: LRRK2 Inhibition, Table 8. The procedure: 10 mM compound solution was prepared in DMSO. An 11-point, 3-fold dilution was performed, with highest concentration at 10 μM. A 10 mM compound DMSO solution was added to Labcyte LDV plate and the compound concentration of source plate was 10 mM. The 1st compound concentration of Inter plate(Labcyte 384 well PP plate) was 4.938×10^−1 mM which was prepared by transferring 1.5 μL of 10 mM compound from source plate to 28.9 μL DMSO. The 2nd compound concentration of Inter plate was 1.829×10^−2 mM which was prepared by transferring 60 nL of 10 mM compound from source plate to 32.7 μL DMSO. The 3rd compound concentration of Inter plate was 6.774×10^−4 mM which was prepared by transferring 2.5 nL of 10 mM compound from source plate to 36.9 μL DMSO. 100 nL of reference compound was dispensed in column 1 for low control wells and 100 nL of DMSO in column 24 for high control wells. Compounds were dispensed to column 2 to 23 of assay plate and backfilled with DMSO to a total volume of 100 nL.
Sequence of LRRK2 wild type enzyme (Q5S007 whole entry): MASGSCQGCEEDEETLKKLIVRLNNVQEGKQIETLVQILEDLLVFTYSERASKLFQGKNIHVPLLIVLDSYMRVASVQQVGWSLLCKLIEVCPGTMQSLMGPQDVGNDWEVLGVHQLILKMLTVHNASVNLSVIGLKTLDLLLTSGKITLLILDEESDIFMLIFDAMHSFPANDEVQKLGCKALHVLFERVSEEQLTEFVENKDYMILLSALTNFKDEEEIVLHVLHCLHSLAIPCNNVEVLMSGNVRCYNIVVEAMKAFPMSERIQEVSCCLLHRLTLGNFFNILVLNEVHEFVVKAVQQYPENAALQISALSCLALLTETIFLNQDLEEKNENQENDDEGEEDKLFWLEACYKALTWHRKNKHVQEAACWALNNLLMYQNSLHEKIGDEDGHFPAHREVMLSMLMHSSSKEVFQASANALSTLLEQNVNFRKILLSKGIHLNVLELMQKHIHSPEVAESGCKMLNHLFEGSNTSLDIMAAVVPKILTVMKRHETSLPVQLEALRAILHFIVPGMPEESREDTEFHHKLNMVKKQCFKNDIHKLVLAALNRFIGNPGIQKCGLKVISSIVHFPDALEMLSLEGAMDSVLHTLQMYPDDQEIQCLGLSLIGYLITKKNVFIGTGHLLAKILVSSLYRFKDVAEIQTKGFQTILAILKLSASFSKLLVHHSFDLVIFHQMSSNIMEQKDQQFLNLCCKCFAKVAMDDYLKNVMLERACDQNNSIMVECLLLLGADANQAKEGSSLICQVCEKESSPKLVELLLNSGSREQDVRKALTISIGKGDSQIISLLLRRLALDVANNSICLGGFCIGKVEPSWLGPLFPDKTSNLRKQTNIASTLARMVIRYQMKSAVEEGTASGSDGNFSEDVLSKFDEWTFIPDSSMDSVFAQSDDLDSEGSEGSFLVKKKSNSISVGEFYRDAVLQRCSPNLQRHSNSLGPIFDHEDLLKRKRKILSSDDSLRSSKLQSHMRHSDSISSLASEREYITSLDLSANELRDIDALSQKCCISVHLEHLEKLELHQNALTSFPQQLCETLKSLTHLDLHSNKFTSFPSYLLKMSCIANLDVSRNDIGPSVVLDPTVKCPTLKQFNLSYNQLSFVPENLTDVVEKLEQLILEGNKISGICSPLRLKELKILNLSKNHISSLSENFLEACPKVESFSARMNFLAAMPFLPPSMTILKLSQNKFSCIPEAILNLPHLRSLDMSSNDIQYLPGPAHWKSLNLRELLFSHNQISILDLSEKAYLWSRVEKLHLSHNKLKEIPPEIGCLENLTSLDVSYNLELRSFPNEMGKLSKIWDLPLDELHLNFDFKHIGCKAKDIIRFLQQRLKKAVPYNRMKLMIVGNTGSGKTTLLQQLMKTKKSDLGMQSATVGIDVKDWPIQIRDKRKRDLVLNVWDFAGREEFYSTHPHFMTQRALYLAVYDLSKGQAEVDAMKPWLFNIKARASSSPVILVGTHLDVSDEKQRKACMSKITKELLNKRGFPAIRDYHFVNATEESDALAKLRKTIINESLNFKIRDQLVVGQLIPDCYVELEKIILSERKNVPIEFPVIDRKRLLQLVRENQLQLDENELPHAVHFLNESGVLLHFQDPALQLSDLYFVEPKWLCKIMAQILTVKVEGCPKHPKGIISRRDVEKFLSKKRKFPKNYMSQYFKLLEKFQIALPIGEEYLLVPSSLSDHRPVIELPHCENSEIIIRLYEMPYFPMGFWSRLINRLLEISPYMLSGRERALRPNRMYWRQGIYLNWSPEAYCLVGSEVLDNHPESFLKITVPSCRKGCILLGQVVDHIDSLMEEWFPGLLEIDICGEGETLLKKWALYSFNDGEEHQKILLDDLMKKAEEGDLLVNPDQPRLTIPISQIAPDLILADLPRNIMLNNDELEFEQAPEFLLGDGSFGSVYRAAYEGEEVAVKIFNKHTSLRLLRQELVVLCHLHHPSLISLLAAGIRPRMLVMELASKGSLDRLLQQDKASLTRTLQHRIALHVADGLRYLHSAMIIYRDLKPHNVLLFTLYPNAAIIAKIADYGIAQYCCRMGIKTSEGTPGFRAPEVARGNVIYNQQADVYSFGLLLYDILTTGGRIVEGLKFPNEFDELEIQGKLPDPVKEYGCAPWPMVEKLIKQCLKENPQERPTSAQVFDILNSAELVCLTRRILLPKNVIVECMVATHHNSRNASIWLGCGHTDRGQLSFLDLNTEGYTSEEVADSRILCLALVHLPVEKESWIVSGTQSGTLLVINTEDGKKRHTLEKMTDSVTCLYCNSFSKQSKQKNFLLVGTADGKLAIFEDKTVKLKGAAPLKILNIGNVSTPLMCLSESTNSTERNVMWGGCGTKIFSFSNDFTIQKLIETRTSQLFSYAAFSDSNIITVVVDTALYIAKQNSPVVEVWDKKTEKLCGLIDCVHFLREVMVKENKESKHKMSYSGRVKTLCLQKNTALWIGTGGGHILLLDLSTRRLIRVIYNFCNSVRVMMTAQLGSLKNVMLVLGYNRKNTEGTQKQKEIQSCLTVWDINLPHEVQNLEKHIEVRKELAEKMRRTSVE
A 2X LRRK2 enzyme solution (final concentration 3 nM) was prepared in assay buffer (Tris-HCl pH8.0:50 mM, MgCl2: 5 mM, EDTA: 1 mM, Brij-35:0.01%, 2 mM DTT). A 2× substrate solution was prepared: LRRK2 tide substrate (final concentration 400 nM) and ATP (final concentration 25 μM) in assay buffer. 5 μL 2× LRRK2 enzyme solution was dispensed to each well in assay plate by Multidrop. Assay plate was spun at 1,000 rpm for 1 min and incubated for 15 min at 23° C. 5 μL 2× ATP/LRRKtide solution was dispensed to each well in assay plate by Multidrop. Assay plate was spun at 1,000 rpm for 1 min and incubated for 120 min at 23° C.
(§1) A 2× detection solution was prepared: Tb-pERM (pLRRKtide) antibody (final concentration 0.25 nM) and EDTA (final concentration 10 mM) in TR-FRET dilution buffer. 10 μL 2× detection solution was dispensed to each well in assay plate to stop kinase reaction by Multidrop. Assay plate was spun at 1,000 rpm for 1 min and incubate for 30 min at 23° C. Assay plate was then read on Envision configured for LanthaScreen® TR-FRET. pS935 LRRK2 Cell Assay
(TR-FRET usually uses a lanthanide donor and a delayed reading to cut background.)

For assay [2], the target named is T1, wild type LRRK2 overexpressed in recombinant HEK-293T cells (Homo sapiens, UniProt Q5S007).
T1 construct: host or cells: HEK293T (transient transfection with pCMV-LRRK2 WT plasmid)
T1 sequence (Q5S007 whole entry): as above
The experiment in a line: pS935 LRRK2 Cell Assay (HTRF, phospho-LRRK2 Ser935). The assay is classed as cell-based. As to conditions: LRRK2 Inhibition, Table 8, 2 hours compound incubation. On the procedure:
as §1
The following protocol describes an in-vitro method for measuring phosphorylation at Ser935 on wild type LRRK2 overexpressed in recombinant HEK-293T cells. The method is based on HTRF technology, which combines Fluorescence Resonance Energy Transfer (FRET) with Time-Resolved measurement (TR). Phospho-LRRK2 (Ser935) is detected in a sandwich assay format using two different specific antibodies, one labelled with Eu3+-Cryptate (donor) and the second with d2(acceptor).When the fluorophores are in close proximity, excitation of the donor with a light source (flash lamp) stimulates FRET to the acceptor, which in turn fluoresces at a specific wavelength (665 nm). The fluorescence emission at 615 nm from the donor is also measured to allow ratiometric reduction of data. The specific signal is proportional to phospho-LRRK2 (Ser935).
Plasmid transient transfection: DMEM medium, FBS, DPBS, Trans-IT, OPTI-MEM reagents were allowed to warm to room temperature. HEK293T cells were cultured in DMEM +10% FBS complete medium in T150 flasks till around 80% confluency before transfection. Then cells were washed with 10 mL PBS and detached with 3 mL 0.25% typinsin. 30×10E6 HEK293T cells were seeded in DMEM +10% FBS complete medium to a 15 cm dish.
DNA, TransIT-LT1, OPTI-MEM complex were prepared: […] OPTI-MEM was added to a 15 mL cone tube, then […] plasmid was added to OPTI-MEM and mixed, followed by addition of 60 μL TransIT-LT1 to the plasmid OPTI-MEM mixture and mixing. The resulting mixture was incubated for 15 minutes.
The above plasmid, DNA and OPTI-MEM mixture was added dropwise to the 15 cm dish, ensuring the drops were evenly distributed. The culture dish was gently rocked back and forth and from left to right to evenly distribute the complex. The tranfected dish was incubated for 24 hours at 37° C., and 5% CO2.
Transfected HEK293T was collected in the 15 cm dish. Media was aspirated from tissue culture dish, and washed by dispensing 10 mL 1× DPBS into 15 cm dish. 1× DPBS was aspirated and 3 mL trypsin was dispensed to 15 cm dish. The dish was incubated with trypsin at room temperature for 3 min until the cells were detached. 10 mL of DMEM +10% FBS medium were added to 15 cm dish and triturated to ensure homogenous cell suspensions.
Homogenous cell suspensions were transferred to a 50 mL tube, and centrifuged for 5 minutes at 1,000 rmp/min. The supernatant was aspirated and resuspended with 20 mL complete medium. 1 mL of cell suspension was transferred for cell counting. The cell suspension was diluted to 2× 10E5 cells/ml. 50 μL cell suspensions were added to a 384-well plate. The plate was quick spun at 800 rpm for 1 minute, then incubate overnight at 37° C., 5% CO2.
Compound dispensing: compound was diluted (10 mM DMSO stock solution) and added to assay plate (top concentration: 10 μM, 3 fold serial dilution, 9 doses) with duplicates by Tecan liquid handler. The DMSO concentration of each well was normalized to 0.2%. Plates were quick spun at 1,000 rpm for 1 minute. Plates were incubated at 37° C., 5% CO2 for 2 hours.
1× lysis buffer solution supplemented with blocking reagent was prepared (e.g. 1 mL lysis buffer 4X+3 mL water+40 μL stock blocking reagent 100X). Antibodies working solution was prepared by diluting 40-fold d2 and Cryptate antibodies with detection buffer(e.g. 1520 μL detection buffer+40 μL d2-antibody stock solution+[…] Cryptate-antibody stock solution).
After 2 hours incubation, cell plates were taken out from the incubator. […]

SMILES strings stand for the structures.

Consider `C[C@@H]1C[C@H](n2c(CN3CCCC3=O)nc3cnc4ccc(C#N)cc4c32)CCO1` [Compound 80, 1-[(2R,4R)-2-methyloxan-4-yl]-2-[(2-oxopyrrolidin-1-yl)methyl]-1H-imidazo[4,5-c]quinoline-8-carbonitrile], for which the values for the IC50 in assay [1] and in assay [2] were 4.28 nM and 447 nM, respectively.
`C[C@@H]1C[C@H](n2c(CC(=O)NC3(C)CC3)nc3cnc4ccc(C#N)cc4c32)CCO1` [Compound 328, N-1-methylcyclopropyl{3-[(2R,4R)-2-methyltetrahydro-2H-pyran-4-yl]-12-cyano-3,5,8-triazatricyclo[7.4.0.0^2,6]trideca-1(9),2(6),4,7,10,12-hexaen-4-yl}acetamide]: the IC50 in assay [1] was determined as 1.86 nM; in assay [2], 54.7 nM.
Consider `C[C@@H]1C[C@H](n2c(CNC(=O)OC(C)(C)C)nc3cnc4ccc(C#N)cc4c32)CCO1` [Compound 33, tert-butyl N-({8-cyano-1-[(2R,4R)-2-methyloxan-4-yl]-1H-imidazo[4,5-c]quinolin-2-yl}methyl)carbamate], for which the results for the IC50 in assay [1] and in assay [2] were 5.24 nM and 396 nM, respectively.
For `C[C@@H]1C[C@H](n2c(CC(=O)Nc3cc(C(F)(F)F)on3)nc3cnc4ccc(C#N)cc4c32)CCO1` [Compound 339, N-[5-(trifluoromethyl)-3-isoxazolyl]{3-[(2R,4R)-2-methyltetrahydro-2H-pyran-4-yl]-12-cyano-3,5,8-triazatricyclo[7.4.0.0^2,6]trideca-1(9),2(6),4,7,10,12-hexaen-4-yl}acetamide] the same measures were 1.13 nM and 11.6 nM.
Consider `C[C@@H]1C[C@H](n2c(CC(=O)N[C@H]3C[C@@H](OCc4ccn(C)n4)C3)nc3cnc4ccc(C#N)cc4c32)CCO1` [Compound 367, N-{(1s,3s)-3-[(1-methyl-3-pyrazolyl)methoxy]cyclobutyl}{3-[(2R,4R)-2-methyltetrahydro-2H-pyran-4-yl]-12-cyano-3,5,8-triazatricyclo[7.4.0.0^2,6]trideca-1,4,6,8,10,12-hexaen-4-yl}acetamide], for which the IC50 in assay [1] amounted to 0.597 nM; in assay [2], 94.8 nM.
Take `COc1ncc(NC(=O)Cc2nc3cnc4ccc(C#N)cc4c3n2[C@@H]2CCO[C@H](C)C2)c(OC)n1` [Compound 295, N-(2,4-dimethoxy-5-pyrimidinyl){3-[(2R,4R)-2-methyltetrahydro-2H-pyran-4-yl]-12-cyano-3,5,8-triazatricyclo[7.4.0.0^2,6]trideca-1,4,6,8,10,12-hexaen-4-yl}acetamide]: the figures for the concentration for half-maximal inhibition (IC50) in assay [1] and in assay [2] were 0.455 nM and 4.67 nM, respectively.
Consider `Cn1cc(-n2c(C3CC(=O)N(CC4CC4)C3)nc3cnc4ccc(C#N)cc4c32)ccc1=O` (centres unmarked) [Compound 137, 2-[1-(cyclopropylmethyl)-5-oxopyrrolidin-3-yl]-1-(1-methyl-6-oxo-1,6-dihydropyridin-3-yl)-1H-imidazo[4,5-c]quinoline-8-carbonitrile], for which, in assay [1], the IC50 is more than 1000 nM.
Consider `Cc1nc2ccc(C#N)cc2c2c1nc(CC(=O)NCC1CC1)n2[C@@H]1CCO[C@H](C)C1` [Compound 364, N-cyclopropylmethyl{3-[(2R,4R)-2-methyltetrahydro-2H-pyran-4-yl]-12-cyano-7-methyl-3,5,8-triazatricyclo[7.4.0.0^2,6]trideca-1(9),2(6),4,7,10,12-hexaen-4-yl}acetamide], for which the IC50 in assay [1] turned out to be 186 nM; in assay [2] it was 6770 nM.
With `Cn1cc(-n2c(CC(=O)NCC3CC3)nc3cnc4ccc(C#N)cc4c32)ccc1=O` [Compound 92, 2-[8-cyano-1-(1-methyl-6-oxo-1,6-dihydropyridin-3-yl)-1H-imidazo[4,5-c]quinolin-2-yl]-N-(cyclopropylmethyl)acetamide], the concentration for half-maximal inhibition (IC50) in assay [1] is more than 1000 nM.
In assay [1], `C[C@@H]1C[C@H](n2c([C@@H]3CCN(C(=O)c4cnn(C)c4)C3)nc3cnc4ccc(C#N)cc4c32)CCO1` [Compound 130, 2-[(3R)-1-(1-methyl-1H-pyrazole-4-carbonyl)pyrrolidin-3-yl]-1-[(2R,4R)-2-methyloxan-4-yl]-1H-imidazo[4,5-c]quinoline-8-carbonitrile] registered an IC50 of 6.71 nM.
The compound `C[C@@H]1C[C@H](n2c(CC(=O)NCC3CC3)nc3cnc4ccc(C(=O)N(C)C)cc4c32)CCO1` [Compound 144, 2-{[(cyclopropylmethyl)carbamoyl]methyl}-N,N-dimethyl-1-[(2R,4R)-2-methyloxan-4-yl]-1H-imidazo[4,5-c]quinoline-8-carboxamide] registered an IC50 in assay [1] of more than 1000 nM.
On the same count and under the same terms, in the case of `Cc1cc(-n2c(CC(=O)NCC3CC3)nc3cnc4ccc(C#N)cc4c32)ccn1` [Compound 138, 2-[8-cyano-1-(2-methylpyridin-4-yl)-1H-imidazo[4,5-c]quinolin-2-yl]-N-(cyclopropylmethyl)acetamide] it was more than 1000 nM; in that of `C[C@@H]1C[C@H](n2c(CN3CCC(C(=O)O)CC3)nc3cnc4ccc(C#N)cc4c32)CCO1` [Compound 76, 1-({8-cyano-1-[(2R,4R)-2-methyloxan-4-yl]-1H-imidazo[4,5-c]quinolin-2-yl}methyl)piperidine-4-carboxylic acid], 109 nM; in that of `C[C@@H]1C[C@H](n2c(C3CC(=O)N(Cc4cccnc4)C3)nc3cnc4ccc(C#N)cc4c32)CCO1` (single isomer, unassigned) [Compound 31, 1-[(2R,4R)-2-methyloxan-4-yl]-2-[(3R*)-5-oxo-1-[(pyridin-3-yl)methyl]pyrrolidin-3-yl]-1H-imidazo[4,5-c]quinoline-8-carbonitrile], 26.4 nM.
Same read-out and setting: in the case of `C[C@@H]1C[C@H](n2c([C@@H]3CCN(C(=O)c4cccnn4)C3)nc3cnc4ccc(C#N)cc4c32)CCO1` [Compound 129, 1-[(2R,4R)-2-methyloxan-4-yl]-2-[(3R)-1-(pyridazine-3-carbonyl)pyrrolidin-3-yl]-1H-imidazo[4,5-c]quinoline-8-carbonitrile] it was 2.47 nM.
As to `C[C@@H]1C[C@H](n2c([C@@H]3CCN(S(=O)(=O)c4cnn(C)c4)C3)nc3cnc4ccc(C#N)cc4c32)CCO1` [Compound 128, 2-[(3R)-1-[(1-methyl-1H-pyrazol-4-yl)sulfonyl]pyrrolidin-3-yl]-1-[(2R,4R)-2-methyloxan-4-yl]-1H-imidazo[4,5-c]quinoline-8-carbonitrile], it took 10 nM to reach half-maximal inhibition in assay [1] (IC50).

What is called IC50 is the concentration needed to halve the response being measured.
